Assay results as given in patent US20150322083A1, “(THIENO[2,3-b][1,5]BENZOXAZEPIN-4-YL)PIPERAZIN-1-YL COMPOUNDS AS SELECTIVE 5-HT2A INVERSE AGONISTS” (Eli Lilly and Company, priority 2014, published 2015).
Where a name gives a salt, the structure may show the parent alone.

How the values were obtained:
Norepinephrine Transport = Norepinephrine Transport (Homo sapiens, UniProt P23975); assay: Norepinephrine transporter binding
Protocol: (§1) Curves are evaluated using a 4-parameter logistic nonlinear equation to obtain the concentration of competitor causing 50% inhibition of radioligand binding (IC50). Equilibrium dissociation constants (Ki) are calculated according to the equation Ki=IC50/(1+L/Kd), where L equals the concentration of radioligand used in the experiment and Kd equals the equilibrium dissociation constant of the radioligand for the receptor, determined from standard saturation analysis or homologous competition experiments. Reported values for Ki, where n values are indicated, are shown as geometric mean±the standard error of the mean (SEM), with the number of replicate determinations indicated by n. Geometric means are calculated by the equation GeoMean=10̂(Average(log Ki 1+log Ki 2+ . . . log Ki n)/[…]).
(§2) Further, the compounds of the invention may be tested in binding assays and functional activity assays by well known methods for other physiologically important receptors such as, but not limited to, the hERG channel, other serotonin receptors (specifically 5-HT1B receptors, lack of agonist activity at 5-HT2B receptors, 5-HT2C, 5-HT5, 5-HT6, and 5-HT7 receptors), dopaminergic receptors (specifically D1, D2, and D3), H1 receptors, GABAA receptors, adrenergic receptors and monoamine transporters.

Dopamine Transporter = Dopamine Transporter (Homo sapiens, UniProt Q01959); assay: Dopamine transporter binding
Protocol: as §1, §2

Dopamine D1 = Dopamine D1 (Homo sapiens, UniProt P21728); assay: Dopamine D1 binding
Protocol: as §1, §2

[1] = target: T1, recombinant 5-HT2C receptors (human) (Homo sapiens, UniProt P28335); assay: 5-HT2C competition binding assay ([125I]-(±)DOI, SPA)
T1 construct: expressed in transfected cells
T1 sequence (P28335 33-458): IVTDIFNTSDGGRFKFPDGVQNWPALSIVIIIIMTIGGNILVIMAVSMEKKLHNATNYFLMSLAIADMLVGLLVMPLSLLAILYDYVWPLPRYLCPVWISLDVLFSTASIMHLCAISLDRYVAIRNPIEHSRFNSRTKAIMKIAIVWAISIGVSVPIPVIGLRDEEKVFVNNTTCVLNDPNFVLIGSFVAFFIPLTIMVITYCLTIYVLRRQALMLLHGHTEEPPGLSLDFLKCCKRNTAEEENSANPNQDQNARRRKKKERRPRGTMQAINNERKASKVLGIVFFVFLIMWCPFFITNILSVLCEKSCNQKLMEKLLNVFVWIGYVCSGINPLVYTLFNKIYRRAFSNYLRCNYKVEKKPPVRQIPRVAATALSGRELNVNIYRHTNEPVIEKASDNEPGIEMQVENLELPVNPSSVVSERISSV
Protocol: [^125I]-(±)DOI binding experiments are carried out in SPA 96-well format. Membranes used in this assay are prepared from AV-12 cells stably expressing recombinant 5-HT2C receptors (human). The incubation is initiated by the addition of a mixture of WGA PVT SPA beads (0.5 mg/well, Perkin Elmer (MA, USA), RPNQ0001) and 2.5 μg membranes to assay buffer (50 mM Tris-HCl, 10 mM MgCl2, 0.5 mM EDTA, 10 μM pargyline, 0.1% ascorbic acid, pH7.4) containing 0.2 nM [[^125I]-(±)DOI and varying concentrations of the test compound (10 point concentration response curves). Non-specific binding is determined in the presence of 20 μM 1-(1-naphthyl)piperazine. Samples are incubated for 4 hr. at room temperature (22° C.) and then read in a microplate scintillation counter.
(§3) Curves are evaluated using a 4-parameter logistic nonlinear equation to obtain the concentration of competitor causing 50% inhibition of radioligand binding (IC50). Equilibrium dissociation constants (Ki) are calculated according to the equation Ki=IC50/(1+L/Kd), where L equals the concentration of radioligand used in the experiment and Kd equals the equilibrium dissociation constant of the radioligand for the receptor, determined from standard saturation analysis or homologous competition experiments. […]

5-HT2B = 5-HT2B (Homo sapiens, UniProt P41595); assay: 5-HT2B binding (selectivity data)
5-HT2B, sequence (P41595 whole entry, species assumed): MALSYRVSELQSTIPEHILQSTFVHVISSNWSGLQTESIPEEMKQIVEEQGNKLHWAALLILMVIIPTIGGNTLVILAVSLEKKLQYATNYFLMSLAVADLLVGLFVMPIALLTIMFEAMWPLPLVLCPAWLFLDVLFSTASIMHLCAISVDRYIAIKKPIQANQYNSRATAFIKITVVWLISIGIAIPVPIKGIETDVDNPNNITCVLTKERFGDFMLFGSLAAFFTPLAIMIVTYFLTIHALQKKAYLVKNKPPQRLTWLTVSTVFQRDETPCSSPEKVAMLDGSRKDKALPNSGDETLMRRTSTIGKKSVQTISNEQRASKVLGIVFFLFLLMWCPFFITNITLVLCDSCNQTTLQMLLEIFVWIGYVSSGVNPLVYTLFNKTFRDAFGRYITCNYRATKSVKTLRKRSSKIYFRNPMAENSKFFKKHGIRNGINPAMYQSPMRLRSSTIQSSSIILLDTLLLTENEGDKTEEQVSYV
Protocol: as §1, §2

native GABAA receptors = assay: GABAA antagonism using native receptors in primary neuronal cultures (FLIPR calcium flux); assay type: cell-based; conditions: against 10 μM GABA, rat cortical embryonic neurons
Protocol: Activity of compounds on native GABAA receptors is evaluated by monitoring calcium fluxes using a 96 well format FLIPR® system (Fluorometric Imaging Plate Reader (FLIPR®, Molecular Devices). Briefly, cortical embryonic neurons are dissociated from E18 rat embryos and plated at optimum density into black-walled, transparent bottom poly-D-lysine coated 96-well FLIPR® plates. After loading the cells with a calcium sensitive dye (Fluo4-AM, Molecular Devices), the cells are bathed in a solution containing low chloride (chloride replaced by gluconate). Under these conditions activation of GABAA receptors causes an efflux of chloride ions (in the direction of the chemical gradient), which results in membrane depolarization and consequently activation of voltage gated calcium channels (VGCCs). Calcium influx through VGCCs is recorded and analysed offline using the FLIPR® system. For a pharmacological validation of the assay, concentration response curves (CRC) are recorded for the standard agonist (GABA) and standard antagonist (Gabazine). […]
The antagonist effects of compounds are quantified using 10-point dose response curves by comparing the peak fluorescent responses to the agonist GABA in the presence and absence of compound. […] Antagonist effects are calculated as a percent of the assay window. […]

Serotonin Transporter = Serotonin Transporter (Homo sapiens, UniProt P31645); assay: Serotonin transporter binding
Protocol: as §1, §2

Adrenergic alpha2C = Adrenergic alpha2C (Homo sapiens, UniProt P18825); assay: Adrenergic alpha2C binding
Adrenergic alpha2C, sequence (P18825 whole entry): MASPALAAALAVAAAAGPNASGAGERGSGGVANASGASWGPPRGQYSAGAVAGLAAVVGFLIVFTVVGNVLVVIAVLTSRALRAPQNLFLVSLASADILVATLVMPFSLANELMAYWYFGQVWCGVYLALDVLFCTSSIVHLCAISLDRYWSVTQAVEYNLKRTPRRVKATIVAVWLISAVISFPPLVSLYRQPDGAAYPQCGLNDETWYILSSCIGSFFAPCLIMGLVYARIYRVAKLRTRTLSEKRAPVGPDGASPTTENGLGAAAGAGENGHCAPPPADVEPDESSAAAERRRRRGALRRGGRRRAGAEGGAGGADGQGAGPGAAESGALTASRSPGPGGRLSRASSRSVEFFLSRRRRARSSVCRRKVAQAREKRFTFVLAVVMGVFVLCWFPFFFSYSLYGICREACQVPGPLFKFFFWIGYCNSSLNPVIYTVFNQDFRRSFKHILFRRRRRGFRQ
Protocol: as §1, §2

Adrenergic alpha1B = Adrenergic alpha1B (Homo sapiens, UniProt P35368); assay: Adrenergic alpha1B binding
Adrenergic alpha1B, sequence (P35368 whole entry): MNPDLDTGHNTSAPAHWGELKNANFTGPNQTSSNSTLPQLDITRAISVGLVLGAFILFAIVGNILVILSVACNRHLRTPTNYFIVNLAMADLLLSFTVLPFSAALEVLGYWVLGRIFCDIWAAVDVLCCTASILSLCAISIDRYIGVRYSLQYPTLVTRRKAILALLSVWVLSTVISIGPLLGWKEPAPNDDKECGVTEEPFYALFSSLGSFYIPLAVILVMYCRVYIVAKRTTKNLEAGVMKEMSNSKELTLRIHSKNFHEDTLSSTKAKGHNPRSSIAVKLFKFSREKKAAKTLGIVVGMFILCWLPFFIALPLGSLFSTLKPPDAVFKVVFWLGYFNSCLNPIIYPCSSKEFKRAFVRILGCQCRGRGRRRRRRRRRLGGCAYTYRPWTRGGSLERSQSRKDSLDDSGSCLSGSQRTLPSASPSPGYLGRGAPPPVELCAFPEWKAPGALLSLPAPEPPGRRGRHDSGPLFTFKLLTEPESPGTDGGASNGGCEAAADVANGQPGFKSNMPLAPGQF
Protocol: as §1, §2

Adrenergic alpha1A = Adrenergic alpha1A (Homo sapiens, UniProt P35348); assay: Adrenergic alpha1A binding
Adrenergic alpha1A, sequence (P35348 whole entry): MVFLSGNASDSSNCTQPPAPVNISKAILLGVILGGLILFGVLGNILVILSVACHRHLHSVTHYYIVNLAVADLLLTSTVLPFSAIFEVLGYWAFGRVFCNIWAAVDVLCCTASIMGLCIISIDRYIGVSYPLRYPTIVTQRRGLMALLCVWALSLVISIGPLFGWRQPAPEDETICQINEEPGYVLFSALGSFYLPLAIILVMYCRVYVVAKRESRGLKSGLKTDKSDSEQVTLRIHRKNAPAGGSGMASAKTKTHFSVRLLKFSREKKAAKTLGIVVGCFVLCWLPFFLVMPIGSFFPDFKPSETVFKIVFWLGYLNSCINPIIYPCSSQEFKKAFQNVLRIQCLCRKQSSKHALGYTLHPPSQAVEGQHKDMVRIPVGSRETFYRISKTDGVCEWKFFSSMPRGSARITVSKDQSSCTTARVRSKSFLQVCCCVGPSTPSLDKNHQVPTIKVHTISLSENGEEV
Protocol: as §1, §2

Dopamine D2 = Dopamine D2 (Homo sapiens, UniProt P14416); assay: Dopamine D2 binding
Dopamine D2, sequence (P14416 whole entry): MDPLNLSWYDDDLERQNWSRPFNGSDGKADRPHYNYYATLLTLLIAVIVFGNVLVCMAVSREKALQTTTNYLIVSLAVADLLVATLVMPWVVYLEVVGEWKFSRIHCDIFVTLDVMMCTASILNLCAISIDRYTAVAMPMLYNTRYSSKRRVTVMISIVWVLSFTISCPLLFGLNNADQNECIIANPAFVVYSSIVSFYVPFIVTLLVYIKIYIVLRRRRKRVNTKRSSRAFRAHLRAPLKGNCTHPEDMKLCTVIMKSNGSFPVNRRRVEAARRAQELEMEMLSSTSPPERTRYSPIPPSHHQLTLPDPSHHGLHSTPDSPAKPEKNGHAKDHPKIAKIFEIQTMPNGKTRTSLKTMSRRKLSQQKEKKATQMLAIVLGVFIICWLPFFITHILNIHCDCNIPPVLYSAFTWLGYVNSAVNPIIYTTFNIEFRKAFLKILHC
Protocol: as §1, §2

[2] = target: recombinant human 5-HT2A receptor (Homo sapiens, UniProt P28223); assay: 5-HT2A competition binding assay ([3H]-Ketanserin, SPA); set-up: expressed in transfected cells
recombinant human 5-HT2A receptor, sequence (P28223 whole entry): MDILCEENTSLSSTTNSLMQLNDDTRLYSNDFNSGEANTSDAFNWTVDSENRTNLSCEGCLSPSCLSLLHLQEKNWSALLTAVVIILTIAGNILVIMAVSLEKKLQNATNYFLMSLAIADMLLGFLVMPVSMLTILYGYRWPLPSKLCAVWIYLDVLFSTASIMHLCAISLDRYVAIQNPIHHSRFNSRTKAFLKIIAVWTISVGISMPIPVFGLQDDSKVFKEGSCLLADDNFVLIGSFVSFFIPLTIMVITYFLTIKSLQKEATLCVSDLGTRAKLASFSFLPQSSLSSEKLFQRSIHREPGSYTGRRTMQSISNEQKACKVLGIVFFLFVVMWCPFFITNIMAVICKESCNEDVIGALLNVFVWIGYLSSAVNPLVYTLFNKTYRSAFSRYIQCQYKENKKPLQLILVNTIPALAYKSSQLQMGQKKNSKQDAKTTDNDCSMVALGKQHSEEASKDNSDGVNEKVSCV
Protocol: [^3H]-Ketanserin binding experiments are carried out in SPA 96-well format. Membranes used in this assay are prepared from AV-12 cells stably expressing recombinant 5-HT2A receptors (human). The incubation is initiated by the addition of a mixture of WGA YSi SPA beads (1 mg/well, Perkin Elmer (MA, USA), Product No. RPNQ0011) and 2 μg membranes to assay buffer (67 mM Tris, 0.5 mM EDTA; pH 7.6) containing 3.1 nM [^3H]-Ketanserin and varying concentrations of the test compound (10 point concentration response curves). Non-specific binding is determined in the presence of 20 μM 1-(1-naphthyl)piperazine. Samples are incubated for 4 hr. at room temperature (22° C.) and then read in a microplate scintillation counter.
as §3

H1 receptors = H1 receptors (Homo sapiens, UniProt P35367); assay: H1 receptor binding
H1 receptors, sequence (P35367 whole entry): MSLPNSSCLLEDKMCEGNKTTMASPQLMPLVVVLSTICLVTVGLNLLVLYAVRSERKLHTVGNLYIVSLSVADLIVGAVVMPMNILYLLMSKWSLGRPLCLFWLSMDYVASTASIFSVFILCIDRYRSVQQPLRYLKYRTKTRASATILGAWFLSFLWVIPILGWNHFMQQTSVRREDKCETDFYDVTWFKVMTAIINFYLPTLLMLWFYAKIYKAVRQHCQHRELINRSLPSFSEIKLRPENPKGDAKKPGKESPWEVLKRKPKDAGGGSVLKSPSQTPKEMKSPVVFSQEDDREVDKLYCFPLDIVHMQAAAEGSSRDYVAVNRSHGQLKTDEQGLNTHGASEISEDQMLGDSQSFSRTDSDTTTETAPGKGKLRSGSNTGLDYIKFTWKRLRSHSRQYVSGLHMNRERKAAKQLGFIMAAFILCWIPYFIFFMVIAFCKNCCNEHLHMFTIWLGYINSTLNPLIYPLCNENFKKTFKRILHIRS
Protocol: as §1, §2

Dopamine D3 = Dopamine D3 (Homo sapiens, UniProt P35462); assay: Dopamine D3 binding
Dopamine D3, sequence (P35462 whole entry): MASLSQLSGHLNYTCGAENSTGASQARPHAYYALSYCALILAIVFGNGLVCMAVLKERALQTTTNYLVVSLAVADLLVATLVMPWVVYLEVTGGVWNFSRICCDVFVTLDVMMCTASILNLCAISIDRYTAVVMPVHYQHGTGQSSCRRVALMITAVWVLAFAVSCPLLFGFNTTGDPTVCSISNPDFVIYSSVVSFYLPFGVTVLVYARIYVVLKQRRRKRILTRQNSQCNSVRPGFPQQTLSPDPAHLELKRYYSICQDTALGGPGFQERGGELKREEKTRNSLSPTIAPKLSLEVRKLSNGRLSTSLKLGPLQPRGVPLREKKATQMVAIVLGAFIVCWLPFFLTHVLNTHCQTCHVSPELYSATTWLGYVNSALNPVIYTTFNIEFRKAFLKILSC
Protocol: as §1, §2

Adrenergic alpha2A = Adrenergic alpha2A (Homo sapiens, UniProt P08913); assay: Adrenergic alpha2A binding
Protocol: as §1, §2

Norepinephrine Transport, sequence (P23975 whole entry): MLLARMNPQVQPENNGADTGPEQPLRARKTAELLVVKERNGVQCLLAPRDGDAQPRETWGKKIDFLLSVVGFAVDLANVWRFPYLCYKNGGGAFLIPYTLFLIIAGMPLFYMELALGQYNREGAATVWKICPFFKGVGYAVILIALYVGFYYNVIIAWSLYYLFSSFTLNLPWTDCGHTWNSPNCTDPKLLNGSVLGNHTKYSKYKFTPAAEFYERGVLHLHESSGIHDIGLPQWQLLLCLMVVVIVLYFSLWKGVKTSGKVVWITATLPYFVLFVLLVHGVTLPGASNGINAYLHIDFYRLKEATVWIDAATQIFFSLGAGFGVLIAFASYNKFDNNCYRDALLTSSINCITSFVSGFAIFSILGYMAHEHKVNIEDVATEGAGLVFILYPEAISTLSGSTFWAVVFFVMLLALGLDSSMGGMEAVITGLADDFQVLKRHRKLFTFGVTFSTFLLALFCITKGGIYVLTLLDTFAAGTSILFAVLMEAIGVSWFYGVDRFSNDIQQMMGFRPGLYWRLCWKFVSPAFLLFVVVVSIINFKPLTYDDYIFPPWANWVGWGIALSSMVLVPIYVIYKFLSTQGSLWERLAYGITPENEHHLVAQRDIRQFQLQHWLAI

Cc1ccc2c(c1)Oc1sc(SC(C)C)cc1C(N1CCN(CC(C)(C)C(=O)O)CC1)=N2 [Example 2, 3-[4-(2-Isopropylsulfanyl-8-methyl-thieno[2,3-b][1,5]benzoxazepin-4-yl)piperazin-1-yl]-2,2-dimethyl-propanoic acid dihydrochloric acid salt]
Ki (Norepinephrine Transport): > 691 nM | Ki (Dopamine Transporter): > 875 nM | Ki (Dopamine D1): 3760 nM | Ki [1]: 772 nM | Ki (5-HT2B): 767 nM | IC50 (native GABAA receptors): 41000 nM | Ki (Serotonin Transporter): > 651 nM | Ki (Adrenergic alpha2C): > 6750 nM | Ki (Adrenergic alpha1B): 10400 nM | Ki (Adrenergic alpha1A): > 13400 nM | Ki (Dopamine D2): > 3670 nM | Ki [2]: 6.2 nM | Ki (H1 receptors): 893 nM | Ki (Dopamine D3): > 5880 nM | Ki (Adrenergic alpha2A): > 8820 nM
